{"source": "paper doi:10.1101/2020.12.17.423223v1", "about": "(biorxiv, 2020)", "test_in_all_cases": "two-electrode voltage clamp, Xenopus oocytes", "format_in_all_cases": "cell-based", "key": {"Pun-GLC-2/GLC-3": {"biological_target": "T1, Pun-GLC-2/GLC-3 (Parascaris univalens, UniProt A0A894K4V1+A0A894KE58)", "T1 construct": "full-length subunits co-expressed 1:1 (cRNA) in Xenopus laevis oocytes; heteromeric, pentameric GluCl, stoichiometry unknown", "T1 sequence (A0A894KE58 21-448)": "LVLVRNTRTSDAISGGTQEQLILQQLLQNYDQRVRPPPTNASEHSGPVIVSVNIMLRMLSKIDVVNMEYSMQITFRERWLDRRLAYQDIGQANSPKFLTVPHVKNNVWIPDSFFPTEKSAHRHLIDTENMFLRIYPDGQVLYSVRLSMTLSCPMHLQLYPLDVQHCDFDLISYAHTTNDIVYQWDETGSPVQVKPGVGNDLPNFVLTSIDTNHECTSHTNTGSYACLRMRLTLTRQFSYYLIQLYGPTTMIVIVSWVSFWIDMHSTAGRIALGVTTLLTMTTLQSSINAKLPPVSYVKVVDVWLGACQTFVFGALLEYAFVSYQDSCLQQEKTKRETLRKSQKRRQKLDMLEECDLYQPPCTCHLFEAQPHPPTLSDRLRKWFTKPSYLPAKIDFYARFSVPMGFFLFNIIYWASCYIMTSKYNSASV", "T1 sequence (A0A894K4V1 25-485)": "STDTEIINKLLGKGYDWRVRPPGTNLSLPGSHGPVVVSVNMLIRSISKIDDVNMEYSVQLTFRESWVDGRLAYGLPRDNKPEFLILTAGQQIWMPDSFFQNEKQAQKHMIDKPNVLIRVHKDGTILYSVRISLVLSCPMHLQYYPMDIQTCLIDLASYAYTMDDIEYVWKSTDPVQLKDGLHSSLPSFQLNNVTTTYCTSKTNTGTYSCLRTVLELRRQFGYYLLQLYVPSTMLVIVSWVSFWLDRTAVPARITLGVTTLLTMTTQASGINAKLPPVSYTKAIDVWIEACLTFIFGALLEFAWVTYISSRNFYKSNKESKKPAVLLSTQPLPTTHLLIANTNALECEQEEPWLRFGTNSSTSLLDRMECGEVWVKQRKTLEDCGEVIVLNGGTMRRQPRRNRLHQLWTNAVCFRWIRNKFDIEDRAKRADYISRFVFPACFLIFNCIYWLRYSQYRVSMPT"}, "Cel-AVR-14B/GLC-2": {"biological_target": "T2, Cel-AVR-14B/GLC-2 (Caenorhabditis elegans, UniProt Q17328+Q17369)", "T2 construct": "full-length subunits co-expressed 1:1 (cRNA) in Xenopus laevis oocytes; heteromeric, pentameric GluCl, stoichiometry unknown; b70 prints CAA04170 for AVR-14B, which b73 gives to AVR-15B", "T2 sequence (Q17369 22-430)": "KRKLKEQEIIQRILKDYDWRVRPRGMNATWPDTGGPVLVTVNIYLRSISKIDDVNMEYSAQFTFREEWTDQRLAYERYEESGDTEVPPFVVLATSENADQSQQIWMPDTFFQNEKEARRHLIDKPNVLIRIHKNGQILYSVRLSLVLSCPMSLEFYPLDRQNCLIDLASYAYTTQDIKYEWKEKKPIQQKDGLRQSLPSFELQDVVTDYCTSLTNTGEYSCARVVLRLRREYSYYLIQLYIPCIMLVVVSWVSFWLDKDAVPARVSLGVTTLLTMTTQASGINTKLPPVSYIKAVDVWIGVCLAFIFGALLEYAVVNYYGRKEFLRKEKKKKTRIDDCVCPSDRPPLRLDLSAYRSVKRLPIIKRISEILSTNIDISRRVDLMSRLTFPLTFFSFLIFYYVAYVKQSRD", "T2 sequence (Q17328 23-434)": "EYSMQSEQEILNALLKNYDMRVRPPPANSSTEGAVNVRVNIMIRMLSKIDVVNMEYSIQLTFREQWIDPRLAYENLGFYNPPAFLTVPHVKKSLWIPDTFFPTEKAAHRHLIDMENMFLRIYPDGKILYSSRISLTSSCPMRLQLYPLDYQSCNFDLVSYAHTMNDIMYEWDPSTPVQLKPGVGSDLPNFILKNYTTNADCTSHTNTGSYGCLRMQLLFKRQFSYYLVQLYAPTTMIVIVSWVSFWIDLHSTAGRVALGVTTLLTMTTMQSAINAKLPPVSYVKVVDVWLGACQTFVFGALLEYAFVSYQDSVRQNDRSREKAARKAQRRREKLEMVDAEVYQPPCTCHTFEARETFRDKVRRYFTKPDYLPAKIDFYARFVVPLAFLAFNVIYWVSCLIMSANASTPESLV"}, "Cel-GLC-2": {"biological_target": "T3, Cel-GLC-2 (Caenorhabditis elegans, UniProt Q17328)", "T3 construct": "full-length, expressed singly (cRNA) in Xenopus laevis oocytes; homomeric pentameric GluCl", "T3 sequence (Q17328 23-434)": "T2 sequence (Q17328 23-434)"}, "Pun-GLC-3": {"biological_target": "T4, Pun-GLC-3 (Parascaris univalens, UniProt A0A894K4V1)", "T4 construct": "full-length, expressed singly (cRNA) in Xenopus laevis oocytes; homomeric pentameric GluCl", "T4 sequence (A0A894K4V1 25-485)": "T1 sequence (A0A894K4V1 25-485)"}, "Cel-GLC-2/GLC-3": {"biological_target": "T5, Cel-GLC-2/GLC-3 (Caenorhabditis elegans, UniProt G5EEZ3+Q17328)", "T5 construct": "full-length subunits co-expressed 1:1 (cRNA) in Xenopus laevis oocytes; heteromeric, pentameric GluCl, stoichiometry unknown", "T5 sequence (Q17328 23-434)": "T2 sequence (Q17328 23-434)", "T5 sequence (G5EEZ3 23-484)": "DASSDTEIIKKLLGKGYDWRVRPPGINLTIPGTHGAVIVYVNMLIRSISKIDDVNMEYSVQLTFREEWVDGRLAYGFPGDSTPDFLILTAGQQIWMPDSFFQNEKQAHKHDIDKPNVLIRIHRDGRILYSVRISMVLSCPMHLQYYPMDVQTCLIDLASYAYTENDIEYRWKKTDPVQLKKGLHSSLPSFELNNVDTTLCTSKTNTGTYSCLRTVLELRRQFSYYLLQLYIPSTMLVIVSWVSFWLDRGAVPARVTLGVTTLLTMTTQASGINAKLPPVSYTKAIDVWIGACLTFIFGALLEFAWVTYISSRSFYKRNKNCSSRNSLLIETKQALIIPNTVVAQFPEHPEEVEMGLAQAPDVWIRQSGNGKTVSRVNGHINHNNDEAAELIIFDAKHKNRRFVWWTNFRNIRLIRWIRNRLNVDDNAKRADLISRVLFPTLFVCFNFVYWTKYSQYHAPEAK"}, "Pun-AVR-14B/GLC-2": {"biological_target": "T6, Pun-AVR-14B/GLC-2 (Parascaris univalens, UniProt A0A894K7G1+A0A894KE58)", "T6 construct": "full-length subunits co-expressed 1:1 (cRNA) in Xenopus laevis oocytes; heteromeric, pentameric GluCl, stoichiometry unknown", "T6 sequence (A0A894K7G1 19-428)": "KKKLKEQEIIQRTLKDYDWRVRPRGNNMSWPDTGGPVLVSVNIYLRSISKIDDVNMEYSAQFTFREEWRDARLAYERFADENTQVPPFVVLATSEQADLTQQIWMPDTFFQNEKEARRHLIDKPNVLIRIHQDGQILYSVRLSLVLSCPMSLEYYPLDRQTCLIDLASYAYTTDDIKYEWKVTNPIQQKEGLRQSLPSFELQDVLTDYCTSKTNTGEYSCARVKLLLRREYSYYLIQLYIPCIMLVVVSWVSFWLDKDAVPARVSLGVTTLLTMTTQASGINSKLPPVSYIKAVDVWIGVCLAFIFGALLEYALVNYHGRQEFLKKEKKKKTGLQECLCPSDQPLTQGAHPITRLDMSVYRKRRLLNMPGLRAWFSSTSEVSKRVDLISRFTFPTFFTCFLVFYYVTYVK", "T6 sequence (A0A894KE58 21-448)": "T1 sequence (A0A894KE58 21-448)"}, "Cel-AVR-14B": {"biological_target": "T7, Cel-AVR-14B (Caenorhabditis elegans, UniProt Q17369)", "T7 construct": "full-length, expressed singly (cRNA) in Xenopus laevis oocytes; homomeric pentameric GluCl; b70 prints CAA04170 for AVR-14B, which b73 gives to AVR-15B", "T7 sequence (Q17369 22-430)": "T2 sequence (Q17369 22-430)"}}}
{"molecule": "N[C@@H](CCC(=O)O)C(=O)O", "note": "[glutamate]", "values": [{"measurement": "EC50", "setting": "Pun-GLC-2/GLC-3", "result": "120 ± 5.7", "unit": "µM"}, {"measurement": "EC50", "setting": "Cel-AVR-14B/GLC-2", "result": "20.5 ± 1.3", "unit": "µM"}, {"measurement": "EC50", "setting": "Cel-GLC-2", "result": "215 ± 13.1", "unit": "µM"}, {"measurement": "EC50", "setting": "Pun-GLC-3", "result": "1480 ± 111", "unit": "µM"}, {"measurement": "EC50", "setting": "Cel-GLC-2/GLC-3", "result": "46.8 ± 3.7", "unit": "µM"}, {"measurement": "EC50", "setting": "Pun-AVR-14B/GLC-2", "result": "13.6 ± 1.6", "unit": "µM"}, {"measurement": "EC50", "setting": "Cel-AVR-14B", "result": "112 ± 13", "unit": "µM"}]}
